In patent US10792305B2, “Therapeutic immune modulation using noble gas compositions” (NOBILIS THERAPEUTICS, INC., priority 2015, dated 2020):
“Also recorded” adds a separate entry of the source.

What was measured:
PTSD = details: 20 mg/day and 40 mg/day, cited from earlier work
[1] = tested on: behavioral symptoms of children with ASD; details: 30 or 60 mg per day p.o. for 3-4 months, 25 children; cited from earlier work
[2] = tested on: TNF-alpha production from monocytes; test: Induced TNF-alpha production by monocytes (adherent PBMC), ELISA; assay type: cell-based, human; details: 30% xenon by volume for 1 or 2 hours; 1 ug/ml LPS and 10 μM amyloid beta peptide Aβ (1-42) for 24 h; supernatant ELISA
Experimental: 10 ml of heparinized blood was extracted from healthy volunteers and peripheral blood mononuclear cells were isolated by centrifugation over a ficoll gradient. Cells were subsequently washed in 2× volume phosphate buffered saline, and resuspended in RPMI media supplemented with 10% fetal calf serum. Cells were incubated at a concentration of 10 million cells per ml in 6-well plates in a volume of 2 ml per well. Cells were cultured for 24 hours at 37 Celsius in a fully humidified atmosphere with 5% CO2, subsequent to which non-adherent cells were removed by washing with PBS. Adherent cells were subsequently divided into […], one plate incubated at normoxic tissue culture, the second plate cultured for 1 hour in 30% xenon by volume, and the third tissue cultured for 2 hours in 30% volume. Cells were treated with control media, 1 ug/ml LPS and 10 μM of amyloid beta peptide Aβ (1-42) for 24 h. Supernatant was collected and assessed for TNF-alpha production by ELISA.

[3] = tested on: IL-12 production from dendritic cells; test: Induced IL-12 production by dendritic cells, ELISA; assay type: cell-based, human; details: CD1c dendritic cells; 1 ug/ml LPS and 10 μM amyloid beta peptide Aβ (1-42) for 24 h; supernatant ELISA
Experimental: Monocytes from adherent PBMC were isolated as described in Example 1. Dendritic cells were generated by 7 day culture in IL-4 (10 ng/ml) and GM-CSF (20 ng/ml). Media was changed every two days. On day 7, purification of CD1c dendritic cells was performed and cells were cultured in control media, 1 ug/ml LPS and 10 μM of amyloid beta peptide Aβ (1-42) for 24 h. Supernatant was collected and assessed for IL-12 production by ELISA.

[4] = tested on: severely disruptive symptoms related to autistic disorder; details: pentoxifylline titrated to 600 mg/day with risperidone up to 3 mg/day, 10 weeks, versus placebo+risperidone; cited from earlier work

In the case of `Fc1ccc([C@@H]2CCNC[C@H]2COc2ccc3c(c2)OCO3)cc1` [paroxetine], the “improvement on primary outcome measures compared to placebo” value (PTSD; intent-to-treat analysis) is listed as “significantly greater improvement”, the “PTSD symptom clusters (reexperiencing, avoidance/numbing, hyperarousal), social and occupational impairment, comorbid depression” value (PTSD; versus placebo) is listed as “statistically significant improvement compared to placebo” and the tolerability (PTSD) is listed as “well tolerated”.
In the case of `CCc1ccc(CCOc2ccc(CC3SC(=O)NC3=O)cc2)nc1` (stereo not shown) [pioglitazone], the adverse events [1] is given as “without adverse events”.
With `[Xe]` [xenon gas, xenon] the “induced TNF-alpha production (FIG. 1)” value [2] was “suppression of induced TNF-alpha production was observed; also recorded: suppression of inducible TNF-alpha production” and the “induced IL-12 production (FIG. 2)” value [3] was “suppression of induced IL-12 production was observed; also recorded: suppression of inducible IL-12 production”.
In the case of `CC(=O)CCCCn1c(=O)c2c(ncn2C)n(C)c1=O` [pentoxifylline], the “ABC-C subscale scores (Irritability, Lethargy/Social Withdrawal, Stereotypic Behavior, Hyperactivity/Noncompliance, Inappropriate Speech)” value [4] is listed as “greater reduction in ABC-C subscale scores”.
